Measurements from patent publication US11491245B2, “Gadolinium chelate compounds for use in magnetic resonance imaging” (BAYER PHARMA AKTIENGESELLSCHAFT, priority 2015, dated 2022).
Read-outs that look alike come from different tables or passages of the source.

What was measured:
[1] = Relaxivity measurements at 1.41 T; type: physicochemical; conditions: 1.41 T, 37° C., normalized to Gd; for r1 FBS: fetal bovine serum
Experimental: Relaxivity measurements at 1.41 T were performed using a MiniSpec mq60 spectrometer (Bruker Analytik, Karlsruhe, Germany) operating at a resonance frequency of 60 MHz and a temperature of 37° C. The T1 relaxation times were determined using the standard inversion recovery (IR) method with a fixed relaxation delay of at least 5×T1. The variable inversion time (TI) was calculated automatically by the standard software of the MiniSpec mq60 (8 steps). The T2 measurements were done by using a Carr-Purcell-Meiboom-Gill (CPMG) pulse sequence, applying a relaxation delay of at least 5×T1.
Each relaxivity measurement was performed using three different Gd concentrations (3 concentrations between 0.05 and 2 mM). The T1 and T2 relaxation times of the example compounds 1-10 were measured in different media for example in water, fetal bovine serum (FBS, Sigma, F7524) and human plasma.
(§1) Human plasma preparation: For each experiment fresh blood was taken from a volunteer using 10 mL citrate-tubes (Sarstedt S-Monovette 02.1067.001, 10 mL, Citrate). The 10 mL citrate-tubes were carefully inverted 10 times to mix blood and anticoagulant and centrifuged for 15 minutes at 1811 g at room temperature (Eppendorf, Centrifuge 5810R).
The relaxivities ri (where i=1, 2) were calculated on the basis of the measured relaxation rates Ri in water and plasma: Ri=Ri(0)+ri[CGd], where Ri(0) represent the relaxation rate of the respective solvent and CGd the concentration of the compound normalized to the Gadolinium. The Gadolinium concentrations of the investigated solutions were verified by Inductively Coupled Plasma Mass Spectroscopy (ICP-MS Agilent 7500a, Waldbronn, Germany).

Water solubility = type: physicochemical; conditions: 10 mM Tris-HCl buffer, 20° C.
Experimental: The water solubility of the compounds was determined at room temperature (20° C.) in 0.5 mL buffer solution (10 mM Tris-HCl) in the microcentrifuge tubes (Eppendorf, 2.0 mL safe-lock caps). The solid compound was added stepwise to the buffer solution. The suspension was mixed using a shaker (Heidolph Reax 2000) and treated 5 min in an ultrasound bath (Bandelin, Sonorex Super RK255H) The suspension was stored at room temperature (20° C.) over night and final Gadolinium concentration was determined by inductively coupled plasma mass spectrometry (ICP-MS).

[2] = Relaxivity measurements at 3.0 T; type: physicochemical; conditions: 37° C., normalized to Gd, average ± standard deviation
Experimental: Relaxivity measurements at 3.0 T were performed with a whole body 3.0 T MRI Scanner (Philips Intera, Philips Healthcare, Hamburg, Germany) using a knee-coil (SENSE-Knee-8, Philips Healthcare, Hamburg, Germany). The sample tubes (CryoTubetm Vials, Thermo Scientific 1.8 mL, Roskilde, Denmark) were positioned in 3 rows of 4 and 5 tubes in a plastic holder in a box filled with water. The temperature was adjusted to 37° C. For the MRI sequence, the shortest possible echo-time (TE) with 7.46 milliseconds was used. The inversion times were chosen to optimize the sequence to measure T1 values corresponding to the estimated T1 range of all relaxation times of contrast media containing solutions. The following inversion times (TIs) were applied: 50, 100, 150, 200, 300, 500, 700, 1000, 1400, 2100, 3200, and 4500 milliseconds. The sequence was run with a constant relaxation delay of 3.4 seconds after the registration of the last echo (variable TR in the range from 3450 to 7900 milliseconds). For details of the fit procedure, see Rohrer et. al. (Invest. Radiol. 2005; 40, 11: 715-724). The experimental matrix of the phantom measurement was 320×320.
The relaxivities were evaluated using three different concentrations of each compound (3 concentrations between 0.05 and 2 mM).
as §1, with “The T1 relaxation times of the Example compounds 1-6 were measured in water and human plasma. Human” for “Human”
The relaxivities ri (where i=1, 2) were calculated on the basis of the measured relaxation rates Ri in water and plasma: Ri=Ri(0)+ri[CGd], where Ri(0) represent the relaxation rate of the respective solvent and CGd the concentration of the compound normalized to the Gadolinium (Table 2).

[3] = 37° C., cited from earlier work; for r1 FBS: bovine plasma
[4] = reference compounds (marked ^), 3.0 T, average ± standard deviation
[5] = reference compounds, 1.5 T, from Rohrer et al.

Molecule	r1 FBS [1] [L/mmol/s]	r1 human plasma [1] [L/mmol/s]	r1 water [1] [L/mmol/s]	Solubility (Water solubility) [mmol Gd/L]	r1 human plasma [2] [L/mmol/s]	r1 water [2] [L/mmol/s]	r1 human plasma [3, 4] [L/mmol/s]	r1 water [3, 4] [L/mmol/s]	r1 FBS [3, 5] [L/mmol/s]	r1 water [3, 5] [L/mmol/s]
O=C([O-])CN1CCN(CC(=O)[O-])CCN(CC(=O)NCC(CNC(=O)CN2CCN(CC(=O)[O-])CCN(CC(=O)[O-])CCN(CC(=O)[O-])CC2)(CNC(=O)CN2CCN(CC(=O)[O-])CCN(CC(=O)[O-])CCN(CC(=O)[O-])CC2)CNC(=O)CN2CCN(CC(=O)[O-])CCN(CC(=O)[O-])CCN(CC(=O)[O-])CC2)CCN(CC(=O)[O-])CC1.[Gd+3].[Gd+3].[Gd+3].[Gd+3] [Example 10, Tetragadolinium {4,10-bis(carboxylatomethyl)-7-[2-oxo-2-({3-({[4,7,10-tris(carboxylato-methyl)-1,4,7,10-tetraazacyclododecan-1-yl]acetyl}amino)-2,2-bis[({[4,7,10-tris-(carboxylatomethyl)-1,4,7,10-tetraazacyclododecan-1-yl]acetyl}amino)methyl]propyl}-amino)ethyl]-1,4,7,10-tetraazacyclododecan-1-yl}acetate]	9.2	9.7	7.3	>800	–	–	–	–	–	–
C[C@@H](C(=O)NCC(=O)NCC(CNC(=O)CNC(=O)[C@H](C)N1CCN(CC(=O)[O-])CCN(CC(=O)[O-])CCN(CC(=O)[O-])CC1)(CNC(=O)CNC(=O)[C@H](C)N1CCN(CC(=O)[O-])CCN(CC(=O)[O-])CCN(CC(=O)[O-])CC1)CNC(=O)CNC(=O)[C@H](C)N1CCN(CC(=O)[O-])CCN(CC(=O)[O-])CCN(CC(=O)[O-])CC1)N1CCN(CC(=O)[O-])CCN(CC(=O)[O-])CCN(CC(=O)[O-])CC1.[Gd+3].[Gd+3].[Gd+3].[Gd+3] [Example 3-2, Tetragadolinium {4,10-bis(carboxylatomethyl)-7-[(2S,16S)-3,6,12,15-tetraoxo-16-[4,7,10-tris(carboxylatomethyl)-1,4,7,10-tetraazacyclododecan-1-yl]-9,9-bis({[({(2S)-2-[4,7,10-tris(carboxylatomethyl)-1,4,7,10-tetraazacyclododecan-1-yl]propanoyl}amino)acetyl]-amino}methyl)-4,7,11,14-tetraazaheptadecan-2-yl]-1,4,7,10-tetraazacyclododecan-1-yl}-acetate]	–	11.4	9.4	–	11.4 ± 0.2	9.0 ± 0.4	–	–	–	–
Hexagadolinium 2,2′,2″,2′″,2″″,2′″″,2″″″,2′″″″,2″″″″,2′″″″″,2″″″″″,2′″″″″″,2″″″″″″, 2′″″″″″″,2″″″″″″″, 2′″″″″″″″,2″″″″″″″″,2′″″″″″″″″-{3,7,10-triazatricyclo[3.3.3.0^1,5]undecane-3,7,10-triyltris[carbonyl(3,6,11,14-tetraoxo-4,7,10,13-tetraazahexadecane-8,2,15-triyl)di-1,4,7,10-tetraazacyclododecane-10,1,4,7-tetrayl]}octadecaacetate [Example 8]	14.5	14.6	12.5	>1000	–	–	–	–	–	–
C[C@H](C(=O)NCC(=O)NCC(CNC(=O)CNC(=O)[C@@H](C)N1CCN(CC(=O)[O-])CCN(CC(=O)[O-])CCN(CC(=O)[O-])CC1)(CNC(=O)CNC(=O)[C@@H](C)N1CCN(CC(=O)[O-])CCN(CC(=O)[O-])CCN(CC(=O)[O-])CC1)CNC(=O)CNC(=O)[C@@H](C)N1CCN(CC(=O)[O-])CCN(CC(=O)[O-])CCN(CC(=O)[O-])CC1)N1CCN(CC(=O)[O-])CCN(CC(=O)[O-])CCN(CC(=O)[O-])CC1.[Gd+3].[Gd+3].[Gd+3].[Gd+3] [Example 3-1, Tetragadolinium {4,10-bis(carboxylatomethyl)-7-[(2R,16R)-3,6,12,15-tetraoxo-16-[4,7,10-tris(carboxylatomethyl)-1,4,7,10-tetraazacyclododecan-1-yl]-9,9-bis({[({(2R)-2-[4,7,10-tris(carboxylatomethyl)-1,4,7,10-tetraazacyclododecan-1-yl]propanoyl}amino)-acetyl]amino}methyl)-4,7,11,14-tetraazaheptadecan-2-yl]-1,4,7,10-tetraazacyclo-dodecan-1-yl}acetate]	–	10.4	9.5	–	10.1 ± 0.1	8.9 ± 0.2	–	–	–	–
CC(C(=O)NCC(=O)N1CCN(C(=O)CNC(=O)C(C)N2CCN(CC(=O)[O-])CCN(CC(=O)[O-])CCN(CC(=O)[O-])CC2)CCN(C(=O)CNC(=O)C(C)N2CCN(CC(=O)[O-])CCN(CC(=O)[O-])CCN(CC(=O)[O-])CC2)CCN(C(=O)CNC(=O)C(C)N2CCN(CC(=O)[O-])CCN(CC(=O)[O-])CCN(CC(=O)[O-])CC2)CC1)N1CCN(CC(=O)[O-])CCN(CC(=O)[O-])CCN(CC(=O)[O-])CC1.[Gd+3].[Gd+3].[Gd+3].[Gd+3] (centres unmarked) [Example 7, Tetragadolinium 2,2′,2″,2′″,2″″,2′″″,2″″″,2′″″″,2″″″″,2′″″″″,2″″″″″,2′″″″″″-{1,4,7,10-tetra-azacyclododecane-1,4,7,10-tetrayltetrakis[(2-oxoethane-2,1-diyl)imino(1-oxopropane-1,2-diyl)-1,4,7,10-tetraazacyclododecane-10,1,4,7-tetrayl]}dodecaacetate]	11.7	12.1	10.8	>1400	–	–	–	–	–	–
Tetragadolinium 2,2′,2″,2′″,2″″,2′″″,2″″″,2′″″″,2″″″″,2′″″″″,2″″″″″,2′″″″″″-(3,7,9-triazabicyclo[3.3.1]nonane-3,7-diylbis{carbonyl-1,4-diazepane-6,1,4-triylbis[(2-oxoethane-2,1-diyl)-1,4,7,10-tetraazacyclododecane-10,1,4,7-tetrayl]})dodecaacetate [Example 9]	8.8	–	7.4	>800	–	–	–	–	–	–
CCOc1ccc(CC(CN(CCN(CC(=O)[O-])CC(=O)[O-])CC(=O)[O-])N(CC(=O)[O-])CC(=O)[O-])cc1.[Gd+3].[Na+].[Na+] (centres unmarked) [Reference compound 3, gadoxetate disodium]	–	–	–	–	–	–	6.2 ± 0.3	4.3 ± 0.3	6.9	4.7
Gadomer-17 [Reference compound 4]	–	–	–	–	–	–	13 ± 1	13.0 ± 0.7	16	17.3
CNC[C@H](O)[C@@H](O)[C@H](O)[C@H](O)CO.CNC[C@H](O)[C@@H](O)[C@H](O)[C@H](O)CO.O=C([O-])CN(CCN(CC(=O)[O-])CC(=O)O)CCN(CC(=O)[O-])CC(=O)O.[Gd+3] [Reference compound 2, gadopentetate dimeglumine]	–	–	–	–	–	–	3.7 ± 0.2	3.1 ± 0.3	4.1	3.3
